Measured values reported in patent US20250270222A1, “AP2 ASSOCIATED KINASE 1 INHIBITORS AND USES THEREOF” (Satellos Bioscience Inc., priority 2023, published 2025).

What follows are molecules tested against AAK1 (amino acids T27-A365) (Homo sapiens (Human), UniProt Q2M2I8) (assay: AAK1 pSENs assay). Conditions: ratio of AAK1 pSENs activity to GAK pSENs activity.
Assay type: biochemical
Procedure: The recombinant proteins were independently expressed in Esherichia coli BL21(DE3) cells cultured in Luria-Bertani (LB) medium until OD600 reached 0.6-0.8, then cooled to 15° C., and supplemented with 0.5 mM isopropyl 1-thio-D-galactopyranoside (IPTG) induce protein expression 16 h. Cells were harvested and resuspended in lysis buffer (50 mM HEPES pH 7.5, 500 mM NaCl, 5 mM imidazole, 5% glycerol, 0.5 mM Tris (2-carboxyethyl) phosphine (TCEP), cOmplete Protease Inhibitor Tablet (Roche)) and lysed by microfluidics high pressure homogenizer (UH-06, Union-Biotech). Proteins were purified using Ni-Affinity chromatography (His FF column, Bestchrom) and eluted stepwise in binding buffer with 20-300 mM imidazole. Removal of the hexahistidine tag was performed at 4° C. overnight using recombinant TEV protease and reacted with BirA to obtain the corresponding biotinylated-AAK1. BIKE or GAK proteins. Further separated in the reverse Strep column (Strep-Tactin® XT, IBA). The Biotin elution sample was collected containing untagged biotinylated protein was then purified by Ion-exchange chromatography (Mono Q 10/100 GL, Cytiva) and Size-exclusion chromatography (HiLoad 16/600 Superdex 200 pg, Cytiva). The pure protein was stored in a storage buffer 50 mM HEPES (pH 7.5), 300 mM NaCl, 5% glycerol at −80° C. Protein were characterized by SDS-PAGE. LC-MS and aSEC.
This example describes one illustrative method for determining the IC50 of the compounds of the present invention against AAK1 (amino acids T27-A365). AAK1 protein was dissolved at 20 nM in 1× enzyme solution (50 mM HEPES pH7.5, 10 mM MgCl2, 1 mM DTT, 1% glycerol, 0.5 mM EGTA, 0.01% Briji35, 0.02% BSA) and 12.5 ul was incubated with 250 nl DMSO or 250 nl compound in DMSO at 25° C. for 15 min. The reaction was started by addition of 12.5 ul of 30 uM AQT0759 (Assayquant, CSKS-AQT0759B) and 70 uM ATP which were diluted in 1× substrate dilution buffer (50 mM HEPES pH7.5, 10 mM MgCl2, 1 mM DTT, 1% glycerol, 0.5 mM EGTA, 0.01% Briji35).

AAK1 (amino acids T27-A365), sequence (Q2M2I8 27-365): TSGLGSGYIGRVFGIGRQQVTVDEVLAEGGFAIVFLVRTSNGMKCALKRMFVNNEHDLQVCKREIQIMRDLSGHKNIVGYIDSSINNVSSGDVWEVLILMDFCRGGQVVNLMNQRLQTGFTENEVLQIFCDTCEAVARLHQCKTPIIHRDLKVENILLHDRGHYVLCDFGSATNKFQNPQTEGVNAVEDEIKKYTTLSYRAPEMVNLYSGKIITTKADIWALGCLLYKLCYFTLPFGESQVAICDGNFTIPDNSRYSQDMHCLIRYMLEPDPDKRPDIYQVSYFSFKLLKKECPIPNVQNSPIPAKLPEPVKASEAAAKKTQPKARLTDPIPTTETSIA

SMILES | AAK1:GAK pSENs Selectivity
CC1(OC(=O)N2CCN(c3ccn4ncc(-c5ccc(C(N)=O)cc5)c4n3)CC2)COC1 [Compound I-3, (3-methyloxetan-3-yl)-4-[3-(4-carbamoylphenyl)pyrazolo[1,5-a]pyrimidin-5-yl]piperazine-1-carboxylate] | B (B: 0.016-0.075)
CC1(OC(=O)N2CCN(c3ccn4ncc(-c5cccc(C(N)=O)c5)c4n3)CC2)COC1 [Compound I-4, (3-methyloxetan-3-yl)-4-[3-(3-carbamoylphenyl)pyrazolo[1,5-a]pyrimidin-5-yl]piperazine-1-carboxylate] | C (C: 0.076-0.15)
COc1ncccc1-c1cnn2ccc(N3CCN(C(=O)OC4CCNC4)CC3)nc12 (centres unmarked) [Compound I-5, Pyrrolidin-3-yl4-[3-(2-methoxy-3-pyridyl)pyrazolo[1,5-a]pyrimidin-5-yl]piperazine-1-carboxylate] | B (B: 0.016-0.075)
COc1ncccc1-c1cnn2ccc(N3CCN(C(=O)OC4(C)CCNC4)CC3)nc12 (centres unmarked) [Compound I-8, (3-Methylpyrrolidin-3-yl)-4-[3-(2-methoxy-3-pyridyl)pyrazolo[1,5-a]pyrimidin-5-yl]piperazine-1-carboxylate] | B (B: 0.016-0.075)
C#CC1(OC(=O)N2CCN(c3ccn4ncc(-c5cccnc5OC)c4n3)CC2)CCNC1 (centres unmarked) [Compound I-9, (3-Ethynylpyrrolidin-3-yl) 4-[3-(2-methoxy-3-pyridyl)pyrazolo[1,5-a]pyrimidin-5-yl]piperazine-1-carboxylate] | B (B: 0.016-0.075)
CN(CCNc1ccn2ncc(-c3cccnc3OC3CC3)c2n1)C(=O)OC(C)(C)C [Compound I-12, tert-butyl N-[2-[[3-[2-(Cyclopropoxy)-3-pyridyl]pyrazolo[1,5-a]pyrimidin-5-yl]amino]ethyl]-N-methyl-carbamate] | A (A: ≤0.015)
CC1(OC(=O)N2CCN(c3ccn4ncc(-c5cccnc5OC5CC5)c4n3)CC2)CCNC1 (centres unmarked) [Compound I-13-5, (3-Methylpyrrolidin-3-yl) 4-[3-[2-(cyclopropoxy)-3-pyridyl]pyrazolo [1,5-a]pyrimidin-5-yl]piperazine-1-carboxylate] | B (B: 0.016-0.075)
C[C@@]1(OC(=O)N2CCN(c3ccn4ncc(-c5cccnc5OC5CC5)c4n3)CC2)CCNC1 [Compound I-14, [(3R)-3-Methylpyrrolidin-3-yl]-4-[3-[2-(cyclopropoxy)-3-pyridyl]pyrazolo[1,5-a]pyrimidin-5-yl]piperazine-1-carboxylate] | A (A: ≤0.015)
C#C[C@]1(OC(=O)N2CCN(c3ccn4ncc(-c5cccnc5OC5CC5)c4n3)CC2)CCNC1 [Compound I-15, [(3R)-3-Ethynylpyrrolidin-3-yl]-4-[3-[2-(cyclopropoxy)-3-pyridyl]pyrazolo[1,5-a]pyrimidin-5-yl]piperazine-1-carboxylate] | B (B: 0.016-0.075)
C#C[C@@]1(OC(=O)N2CCN(c3ccn4ncc(-c5cccnc5OC5CC5)c4n3)CC2)CCNC1 [Compound I-16, [(3S)-3-Ethynylpyrrolidin-3-yl]-4-[3-[2-(cyclopropoxy)-3-pyridyl]pyrazolo[1,5-a]pyrimidin-5-yl]piperazine-1-carboxylate] | B (B: 0.016-0.075)
C#CC1(OC(=O)N2CCN(c3ccn4ncc(-c5cccnc5OC5CC5)c4n3)CC2)CCNC1 (centres unmarked) [Compound I-16-7, 3-ethynylpyrrolidin-3-yl-4-(3-(2-cyclopropoxypyridin-3-yl)pyrazolo[1,5-a]pyrimidin-5-yl)piperazine-1-carboxylate] | B (B: 0.016-0.075)
CC(C)Oc1ncccc1-c1cnn2ccc(N3CCN(C(=O)OC4(C)CCNC4)CC3)nc12 (centres unmarked) [Compound I-21-5, (3-Methylpyrrolidin-3-yl)-4-[3-(2-isopropoxy-3-pyridyl)pyrazolo[1,5-a]pyrimidin-5-yl]piperazine-1-carboxylate] | B (B: 0.016-0.075)
CC(C)Oc1ncccc1-c1cnn2ccc(N3CCN(C(=O)O[C@]4(C)CCNC4)CC3)nc12 [Compound I-22, [(3R)-3-methylpyrrolidin-3-yl]4-[3-(2-isopropoxy-3-pyridyl)pyrazolo[1,5-a]pyrimidin-5-yl]piperazine-1-carboxylate] | B (B: 0.016-0.075)
CC(C)(C)OC(=O)N1CCC(N2C[C@H](OC(=O)N3CCN(c4ccn5ncc(-c6cccnc6OC6CC6)c5n4)CC3)CC2=O)CC1 [Compound I-31, (R)-1-(1-(tert-Butoxycarbonyl)piperidin-4-yl)-5-oxopyrrolidin-3-yl 4-(3-(2-cyclopropoxypyridin-3-yl)pyrazolo[1,5-a]pyrimidin-5-yl)piperazine-1-carboxylate] | D (D: 0.16-1.00)
CN(CCN1C[C@@H](OC(=O)N2CCN(c3ccn4ncc(-c5cccnc5OC5CC5)c4n3)CC2)CC1=O)C(=O)OC(C)(C)C [Compound I-35, (S)-1-(2-((tert-butoxycarbonyl)(methyl)amino)ethyl)-5-oxopyrrolidin-3-yl-4-(3-(2-cyclopropoxypyridin-3-yl)pyrazolo[1,5-a]pyrimidin-5-yl)piperazine-1-carboxylate] | B (B: 0.016-0.075)
O=C1C[C@H](OC(=O)N2CCN(c3ccn4ncc(-c5cccnc5OC5CC5)c4n3)CC2)CN1CCOCc1ccccc1 [Compound I-37, [(3S)-1-(2-benzyloxyethyl)-5-oxo-pyrrolidin-3-yl]-4-[3-[2-(cyclopropoxy)-3-pyridyl]pyrazolo[1,5-a]pyrimidin-5-yl]piperazine-1-carboxylate] | A (A: ≤0.015)
O=C1C[C@H](OC(=O)N2CCN(c3ccn4ncc(-c5cccnc5NC5CC5)c4n3)CC2)CN1 [Compound I-45, [(3S)-5-Oxopyrrolidin-3-yl]4-[3-[2-(cyclopropylamino)-3-pyridyl]pyrazolo[1,5-a]pyrimidin-5-yl]piperazine-1-carboxylate] | E (E: >1.00)
C[C@@]1(OC(=O)N2CCN(c3ccn4ncc(-c5cccnc5OC5CC5)c4n3)CC2)CCN(CC(N)=O)C1 [Compound I-51, (R)-1-(2-amino-2-oxoethyl)-3-(methylpyrrolidin-3-yl)-4-(3-(2-cyclopropoxypyridin-3-yl)pyrazolo[1,5-a]pyrimidin-5-yl)piperazine-1-carboxylate] | A (A: ≤0.015)
CN(CCNc1ccn2ncc(-c3cccnc3OC3CC3)c2n1)C(=O)O[C@]1(C)CCNC1 [Compound I-61, (R)-3-methylpyrrolidin-3-yl (2-((3-(2-cyclopropoxypyridin-3-yl)pyrazolo[1,5-a]pyrimidin-5-yl)amino)ethyl)(methyl)carbamate] | B (B: 0.016-0.075)
COc1ncccc1-c1cnn2ccc(NCCN(C)C(=O)O[C@H]3CO[C@H]4OCC[C@H]43)nc12 [Compound I-70, (3R,3aS,6aR)-hexahydrofuro[2,3-b]furan-3-yl (2-((3-(2-methoxypyridin-3-yl)pyrazolo[1,5-a]pyrimidin-5-yl)amino)ethyl)(methyl)carbamate] | B (B: 0.016-0.075)
